# Test results reported in patent US20220089646A1 (THE UNIVERSITY OF QUEENSLAND, priority 2019, published 2022).
# Entries after “also recorded” stand apart in the source; their conditions may differ. *1 amine or outer side, *2 acyl side, *3 side chain or, on linkers, in order; H or OH if unused. Where a SMILES comes first, the peptide text is derived from it. Bridges are numbered along the chain shown (N, C = ends). [ ]: non-standard residue; d: D form. Phe(4-NO2) = N[C@@H](Cc1ccc([N+](=O)[O-])cc1)C(=O)O; Phe(4-Cl) = N[C@@H](Cc1ccc(Cl)cc1)C(=O)O; NHCH2CMe2S = CC(C)(CN[*:1])S[*:2]; NMeR = CN[C@@H](CCCNC(=N)N)C(=O)O; X1 = CC(C)(CN[*:2])S[*:1]; Sar = CNCC(=O)O
# Key:
# [1] = target: KOP (Homo sapiens, UniProt P41145); experiment: In vitro cAMP activity at KOP (Table 10); format: cell-based; details: cAMP inhibition, four-parameter regression, normalised to U50488H
# KOP, sequence (P41145 whole entry): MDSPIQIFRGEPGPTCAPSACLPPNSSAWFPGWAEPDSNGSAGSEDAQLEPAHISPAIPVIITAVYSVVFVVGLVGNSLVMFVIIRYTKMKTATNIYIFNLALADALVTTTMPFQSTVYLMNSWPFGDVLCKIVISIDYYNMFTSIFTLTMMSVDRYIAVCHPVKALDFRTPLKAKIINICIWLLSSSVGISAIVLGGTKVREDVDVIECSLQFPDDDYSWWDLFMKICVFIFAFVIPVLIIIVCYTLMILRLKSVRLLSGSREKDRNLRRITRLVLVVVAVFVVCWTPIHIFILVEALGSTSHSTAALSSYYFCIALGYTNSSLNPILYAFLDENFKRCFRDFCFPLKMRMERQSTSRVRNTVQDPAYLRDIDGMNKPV
# Protocol: (§1) The CP series compounds were assayed as follows: The assay was performed using a 96 well ½ area plate. The different cAMP standard solutions (3 μL/well) were plated in duplicate. The different concentrations of drug (3 μL/well), and control solutions (3 μL/well) were plated in triplicate. Following this, the acceptor bead mixture (3 μL/well) was added to the respective sets—either cAMP standard curve or the treatment. This was covered and incubated on the orbital shaker for 60 minutes at 37° C. Then, the donor bead mixture (10 μL/well) was added to each well. This was incubated at room temperature overnight on the orbital shaker.
# (§2) For DP-11-06 the assay was carried out in the same way as for the CP compounds except it was incubated for 30 mins at 37° C.
# (§3) For the CP series compounds and DP-11-06, the Ensight® Multimode Plate Reader was used to quantify the fluorescence units of each plate. Before reading, each plate was centrifuged at 280 g for 30 seconds. Using GraphPad Prism7® Software, cAMP concentrations were determined by fit spline/LOWESS analysis. The cAMP standard curve was used for interpolation at this point. The cAMP concentrations were then normalized to the highest cAMP concentration recorded and analyzed by one-way ANOVA for multiple comparisons. The IC50 for each compound was then calculated using GraphPad Prism7® with non-linear regression analysis using four parameter curve fitting.
# (§4) The results shown in Table 10 utilized rat plasma. • Note that DP-7-11 and CP5 represent the same compound, and DP-7-12 and CP6 are the same compound. In this regard, a different regression analysis method was adopted on the above cAMP experiments. Particularly, a new non-linear regression (four-parameter) was adopted to better account for hill slope, thereby improving the regression fit.
# [2] = target: MOP (Homo sapiens, UniProt P35372); experiment: In vitro cAMP activity at MOP (Table 10); format: cell-based; details: cAMP inhibition, four-parameter regression
# MOP, sequence (P35372 whole entry): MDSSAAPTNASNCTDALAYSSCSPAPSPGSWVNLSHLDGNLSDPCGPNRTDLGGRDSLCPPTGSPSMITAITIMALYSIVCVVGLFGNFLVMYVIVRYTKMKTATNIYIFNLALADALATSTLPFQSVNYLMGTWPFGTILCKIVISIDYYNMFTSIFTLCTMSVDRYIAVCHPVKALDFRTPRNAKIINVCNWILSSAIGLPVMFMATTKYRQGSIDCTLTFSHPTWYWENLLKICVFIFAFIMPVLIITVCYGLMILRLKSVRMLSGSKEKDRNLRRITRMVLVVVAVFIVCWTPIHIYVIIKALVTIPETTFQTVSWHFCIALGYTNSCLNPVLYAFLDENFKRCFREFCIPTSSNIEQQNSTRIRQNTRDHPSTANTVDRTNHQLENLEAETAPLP
# Protocol: as §1, §2, §3
# (§5) In this regard, a different regression analysis method was adopted on the above cAMP experiments. Particularly, a new non-linear regression (four-parameter) was adopted to better account for hill slope, thereby improving the regression fit.
# [3] = target: DOP (Homo sapiens, UniProt P41143); experiment: In vitro cAMP activity at DOP (Table 10); format: cell-based; details: cAMP inhibition, four-parameter regression
# DOP, sequence (P41143 whole entry): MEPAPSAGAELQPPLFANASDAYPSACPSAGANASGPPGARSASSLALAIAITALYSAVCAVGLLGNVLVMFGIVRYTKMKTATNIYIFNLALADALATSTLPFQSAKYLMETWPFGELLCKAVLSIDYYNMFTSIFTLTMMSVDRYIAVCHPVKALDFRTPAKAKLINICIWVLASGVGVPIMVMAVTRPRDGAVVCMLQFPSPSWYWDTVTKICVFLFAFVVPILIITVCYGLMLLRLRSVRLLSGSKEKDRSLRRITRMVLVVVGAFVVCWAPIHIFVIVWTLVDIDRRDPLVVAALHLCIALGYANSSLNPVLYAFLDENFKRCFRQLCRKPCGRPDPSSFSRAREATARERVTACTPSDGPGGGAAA
# Protocol: as §1, §2, §3, §5
# [4] = target: T1, bovine pancreatic trypsin (Bos taurus, UniProt P00760); experiment: Trypsin stability assay (Table 10); format: in vitro ADME; details: for half-life / half-life at 100 uM: bovine pancreatic trypsin 2.5 μg/mL, 37° C., One Phase Decay, read-out: Stability (t1/2, mins) Trypsin; for half-life at 100 uM: bovine pancreatic trypsin solution; for Degradation in trypsin: over the 120 minute assay
# T1 construct: from tissue; host or cells: bovine pancreas
# T1 sequence (P00760 24-246): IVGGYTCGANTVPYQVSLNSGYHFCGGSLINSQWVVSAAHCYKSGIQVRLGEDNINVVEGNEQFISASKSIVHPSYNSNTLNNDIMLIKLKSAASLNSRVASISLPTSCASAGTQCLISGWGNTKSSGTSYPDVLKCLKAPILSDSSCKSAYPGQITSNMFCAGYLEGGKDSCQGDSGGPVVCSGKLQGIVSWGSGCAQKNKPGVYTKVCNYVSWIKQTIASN
# Text: (§6) FIG. 20 is a series of graphs showing the stability of selected peptides in a trypsin (left-hand graphs) and plasma (right-hand graphs) stability assay (data normalised to concentration of each peptide at t=0, determined by LCMS, within each substrate; data analysed using One Phase Decay nonlinear regression in Prism software and each experiment performed in triplicate; mean+/−SEM);
# Plasma was collected in house from adult mixed-gender Wistar rats, prepared using 2% EDTA as per standard practice. Peptides were added to rat plasma samples at 37° C. (in a water bath) with final concentrations of 100 uM (1:9 peptide in water:plasma) and a 50 μL sample was immediately taken and precipitated in 150 μL cold acetonitrile (9:1 ACN:water). This sample became the baseline, or t=0 min sample. […] At each time point, the 50 μL of plasma collected was immediately added to cold ACN. Each collected plasma sample in ACN was directly vortexed for 30 seconds and then centrifuged at room temperature (13K rpm, 5 min). 150 μL of the supernatant was taken and directly placed in glass HPLC vials for LCMS analysis.
# The protocol for the trypsin stability assay was very similar to the plasma stability assay discussed above. The only difference was the use of a trypsin solution (bovine pancreatic trypsin 2.5 μg/mL in NH4HCO3 buffer, pH approx. 8-8.5, 37° C.) instead of rat plasma. Volumes, times and preparation protocols were exactly as mentioned above.
# [5] = Plasma stability assay (Table 10); format: in vitro ADME; details: 37° C., 100 uM peptide, One Phase Decay, read-out: Stability (t1/2, mins) Plasma; for half-life: rat plasma; for half-life at 100 uM: both sexes, Wistar, rat plasma (EDTA)
# Text: as §6, §4
# Plasma was collected in house from adult mixed-gender Wistar rats, prepared using 2% EDTA as per standard practice. Peptides were added to rat plasma samples at 37° C. (in a water bath) with final concentrations of 100 uM (1:9 peptide in water:plasma) and a 50 μL sample was immediately taken and precipitated in 150 μL cold acetonitrile (9:1 ACN:water). This sample became the baseline, or t=0 min sample. Plasma with peptide was immediately returned to the water bath and subsequent 50 μL samples were taken at 5, 10, 15, 30, 60 and 120 min. At each time point, the 50 μL of plasma collected was immediately added to cold ACN. Each collected plasma sample in ACN was directly vortexed for 30 seconds and then centrifuged at room temperature (13K rpm, 5 min). 150 μL of the supernatant was taken and directly placed in glass HPLC vials for LCMS analysis.
# [6] = Stability in cAMP buffer; format: physicochemical; details: over 60 minutes
# Text: Select compounds were also screened for stability in cAMP buffer, to assess whether they degrade spontaneously in the cell assay environment, in the absence of cellular metabolic processes.
# [7] = test system: bovine pancreatic trypsin; experiment: bovine pancreatic trypsin 2.5 μg/mL in NH4HCO3 buffer, pH approx. 8-8.5; details: 37° C., up to 120 min
# [8] = test system: trypsin; experiment: stock trypsin solution (1 mg trypsin in 50 mL of 0.1 M NH4HCO3 buffer); details: 37° C., up to 24 hours
molecule,measurement,setting,value
"CC(C)C[C@H](NC(=O)[C@H](Cc1ccc(Cl)cc1)NC(=O)CN(C)C(=O)[C@@H](N)Cc1ccc(O)cc1)C(=O)N[C@@H](CCCNC(=N)N)C(=O)N[C@H](CCCNC(=N)N)C(=O)N[C@H]1CSSC(C)(C)CNC(=O)C[C@@H](C(N)=O)NC1=O [CP9, c(Tyr-Sar-(p-Cl-Phe)-Leu-Arg-D(Arg)-SSa-Asp)] (H-Y[Sar][Phe(4-Cl)]LR[dR]CD-NH2; linker 7-8 via X1)",EC50,[1],1.8 nM
same,EC50,[2],> 10000 nM
same,EC50,[3],> 10000 nM
same,half-life,[4],49.8 min
same,half-life,[5],85.5 min
same,Degradation in cAMP assay buffer,[6],no degradation
c(Tyr-Sar(p-NO2-Phe)-Leu-Arg-D(Arg)-SSa-Arg-D(Asp)-Lys,not cleaved,[7],no sign of degradation over the 120 minute assay
c(Tyr-Gly-Gly-Phe-D(Asp)-Arg-SSa-Ile-Arg-Pro-Lys),not cleaved,[8],Stable up to 6 h; more than 90% remained after 360 minutes
"CC(C)C[C@H](NC(=O)[C@H](Cc1ccc([N+](=O)[O-])cc1)NC(=O)CN(C)C(=O)[C@@H](N)Cc1ccc(O)cc1)C(=O)N[C@@H](CCCNC(=N)N)C(=O)N[C@H](CCCNC(=N)N)C(=O)N[C@@H]1CSSC(C)(C)CNC(=O)C[C@H](C(=O)N[C@@H](CCCCN)C(N)=O)NC(=O)[C@H](CCCNC(=N)N)NC1=O [CP13, c(Tyr-Sar(p-NO2-Phe)-Leu-Arg-D(Arg)-SSa-Arg-D(Asp)-Lys] (H-Y[Sar][Phe(4-NO2)]LR[dR][dC]R[dD]K-NH2; linker 7-9 via X1)",EC50,[1],16 nM
same,EC50,[2],> 10000 nM
same,half-life at 100 uM,[4],1410 min
same,Degradation in trypsin,[4],no sign of degradation
same,half-life at 100 uM,[5],63.3 min
same,Degradation in cAMP assay buffer,[6],no degradation
"CC(C)C[C@H](NC(=O)[C@H](Cc1ccc([N+](=O)[O-])cc1)NC(=O)CN(C)C(=O)[C@@H](N)Cc1ccc(O)cc1)C(=O)N[C@@H](CCCNC(=N)N)C(=O)N(C)[C@@H](CCCNC(=N)N)C(=O)N[C@@H]1CC(=O)NCC(C)(C)SSC[C@H](C(=O)N[C@H](CCCCN)C(N)=O)NC(=O)[C@@H](CCCNC(=N)N)NC1=O [CP14, c(Tyr-Sar-(p-NO2-Phe)-Leu-Arg-NMA-D(Asp)-D(Arg)-SSa-D(Lys))] (H-Y[Sar][Phe(4-NO2)]LR[NMeR][dD][dR][dC][dK]-NH2; linker 7-9 via NHCH2CMe2S)",EC50,[1],4.4 nM
same,EC50,[2],> 10000 nM
same,half-life at 100 uM,[4],2320 min
same,Degradation in trypsin,[4],no sign of degradation
same,half-life at 100 uM,[5],70.8 min
same,Degradation in cAMP assay buffer,[6],no degradation
"CC1(C)CNC(=O)C[C@@H](C(=O)N[C@@H](CCCNC(=N)N)C(=O)N[C@@H](CCCNC(=N)N)C(N)=O)NC(=O)[C@H](Cc2ccccc2)NC(=O)CNC(=O)C(NC(=O)[C@@H](N)Cc2ccc(O)cc2)CSS1 (stereo partly drawn) [CP1, c(Tyr-SSa-Gly-Phe-L-Asp-Arg-Arg)]",EC50,[1],1270 nM
same,EC50,[2],4530 nM
same,EC50,[3],> 10000 nM
same,half-life,[4],< 0.01 min
same,half-life,[5],< 0.01 min
Tyr-Gly-Gly-Phe-Leu-Arg-Arg,fragment found,[8],"DYN A (1-6), 15 min"
Tyr-Gly-Gly-Phe-Leu-Arg-Arg-Ile-Arg-Pro-Lys,fragment found,[8],"DYN A (1-7), first_seen, initial time point samples; also recorded: DYN A (1-6), first_seen, initial time point samples"
same,not cleaved,[8],DYN 1-9 was not observed upon trypsin digestion
c(Tyr-Sar-(p-NO2-Phe)-Leu-Arg-NMA-D(Asp)-D(Arg)-SSa-D(Lys)),not cleaved,[7],no sign of degradation over the 120 minute assay
